Patent US11453703B2, “Heterotandem bicyclic peptide complexes” (BicycleTX Limited, priority 2018, dated 2022)

Target: CD137 (Homo sapiens, UniProt Q07011)
Test: CD137 reporter assay, co-culture with PD-L1 expressing cell line RKO
Assay type: cell-based
Parameters: host or cells: Jurkat reporter cells
Settings: tumour target PD-L1, co-culture with RKO, 6 h
Method: Culture medium referred to as R1 media is prepared by adding 1% FBS to RPMI-1640 (component of Promega kit CS196005). Serial dilutions of test articles in R1 are prepared in a sterile 96 well-plate. Use 25 μl per well of test articles or R1 (as a background control) to designated wells in white cell culture plate. Tumour cells* are harvested and resuspended at a concentration of 400,000 cells/mL in R1 media. Twenty five (25) μL/well tumour cells are used in white cell culture plate. Jurkat cells (Promega kit CS196005, 0.5 mL) are thawed in the water bath and then added to 5 ml pre-warmed R1 medium. Twenty five (25) μL/well Jurkat cells are used in white cell culture plate. Incubate the cells and test articles for 6h at 37° C., 5% CO2. At the end of 6 h, add 75 μl/well Bio-Glo™ (Promega) and incubate for 10 min before reading luminescence in a plate reader (Clariostar, BMG). The fold change relative to cells (Jurkat cells+Cell line used in co-culture) is calculated and plotted in GraphPad Prism as log(agonist) vs response to determine EC50 (nM) and Fold Induction over background (Max)

Sequence of CD137 (Q07011 24-255): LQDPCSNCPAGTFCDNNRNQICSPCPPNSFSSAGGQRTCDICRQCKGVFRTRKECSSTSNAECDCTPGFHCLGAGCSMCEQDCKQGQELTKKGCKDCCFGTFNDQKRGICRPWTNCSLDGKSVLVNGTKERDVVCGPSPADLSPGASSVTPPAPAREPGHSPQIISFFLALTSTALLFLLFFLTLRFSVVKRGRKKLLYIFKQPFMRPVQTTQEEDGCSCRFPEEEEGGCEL

Compound | EC50 [nM] | Fold Induction over Background [fold] | fold induction (read-out: Fold Induction over Background)
CCCC[C@@H]1NC(=O)[C@H](Cc2ccc(O)cc2)NC(=O)[C@@H]2CCCN2C(=O)[C@H](CC(=O)O)NC(=O)[C@H](C)NC(=O)[C@H](Cc2ccccc2)NC(=O)[C@@H]2CSCCC(=O)N3CN(CN(C3)C(=O)CCSC[C@@H](C(=O)N[C@@H](CNC(=O)CCOCCOCCOCCOCCOCCOCCOCCOCCOCCOCCOCCOCCn3cc(CCC(=O)NCCCC[C@H](NC(=O)CN(C)C(=O)CN(C)C(=O)CN(C)C(=O)CN(C)C(=O)CN(C)C(=O)CN(C)C(=O)CN(C)C(=O)CN(C)C(=O)CN(C)C(=O)CN(C)C(=O)[C@@H]4CSCCC(=O)N5CN6CN(C5)C(=O)CCSC[C@H](NC(=O)[C@H](CCSC)NC(=O)[C@H]([C@@H](C)O)NC(=O)[C@H](CC(C)C)NC(=O)[C@H](Cc5c[nH]c7ccccc57)NC(=O)CNC(=O)[C@H](C)NC(=O)[C@H](CO)NC(=O)[C@@H](NC(=O)[C@H](CCCCN)NC(=O)[C@H](CC(=O)O)NC(=O)[C@@H](N)CO)CSCCC6=O)C(=O)N[C@@H](CCC(N)=O)C(=O)N[C@@H](CCCCN)C(=O)N[C@@H](CC(C)C)C(=O)N[C@@H](Cc5c[nH]cn5)C(=O)N[C@@H](CC(C)C)C(=O)N4)C(N)=O)nn3)C(N)=O)NC1=O)C(=O)CCSC[C@H](NC(C)=O)C(=O)N[C@@H](CC(C)(C)C)C(=O)N1CCC[C@H]1C(=O)N[C@@H](CCC(=O)O)C(=O)N[C@H](C)C(=O)N1CCC[C@H]1C(=O)N[C@@H](Cc1ccc(O)cc1)C(=O)N2 [BCY10581] | 18 | 6 | –
CCCC[C@@H]1NC(=O)[C@H](Cc2ccc(O)cc2)NC(=O)[C@@H]2CCCN2C(=O)[C@H](CC(=O)O)NC(=O)[C@H](C)NC(=O)[C@H](Cc2ccccc2)NC(=O)[C@@H]2CSCCC(=O)N3CN(CN(C3)C(=O)CCSC[C@@H](C(=O)N[C@@H](CNC(=O)CCOCCOCCOCCOCCOCCOCCOCCOCCOCCOCCOCCOCCn3cc(CCC(=O)NCCCC[C@@H]4NC(=O)[C@H](CCC(N)=O)NC(=O)[C@@H]5CSCCC(=O)N6CN(CN(C6)C(=O)CCSC[C@H](NC(=O)[C@H](CCCCN)NC(=O)[C@H](CC(=O)O)NC(=O)[C@@H](N)CO)C(=O)N[C@@H](CO)C(=O)N[C@@H](C)C(=O)NCC(=O)N[C@@H](Cc6c[nH]c7ccccc67)C(=O)N[C@@H](CC(C)C)C(=O)N[C@@H]([C@@H](C)O)C(=O)N[C@@H](CCSC)C(=O)N5)C(=O)CCSC[C@@H](C(N)=O)NC(=O)[C@H](CC(C)C)NC(=O)[C@H](Cc5c[nH]cn5)NC(=O)[C@H](CC(C)C)NC4=O)nn3)C(N)=O)NC1=O)C(=O)CCSC[C@H](NC(C)=O)C(=O)N[C@@H](CC(C)(C)C)C(=O)N1CCC[C@H]1C(=O)N[C@@H](CCC(=O)O)C(=O)N[C@H](C)C(=O)N1CCC[C@H]1C(=O)N[C@@H](Cc1ccc(O)cc1)C(=O)N2 [BCY10582] | 28 | 4 | –
CCCC[C@@H]1NC(=O)[C@H](Cc2ccc(O)cc2)NC(=O)[C@@H]2CCCN2C(=O)[C@H](CC(=O)O)NC(=O)[C@H](C)NC(=O)[C@H](Cc2ccccc2)NC(=O)[C@@H]2CSCCC(=O)N3CN(CN(C3)C(=O)CCSC[C@@H](C(=O)N[C@@H](C)C(N)=O)NC1=O)C(=O)CCSC[C@H](NC(C)=O)C(=O)N[C@@H](CC(C)(C)C)C(=O)N1CCC[C@H]1C(=O)N[C@@H](CCCCNC(=O)CCOCCOCCOCCOCCOCCOCCOCCOCCOCCOCCOCCOCCn1cc(CCC(=O)NCCCC[C@@H]3NC(=O)[C@H](CCC(N)=O)NC(=O)[C@@H]4CSCCC(=O)N5CN(CN(C5)C(=O)CCSC[C@@H](C(=O)N5CCC[C@H]5C(=O)N[C@@H](CO)C(=O)N[C@@H](Cc5c[nH]cn5)C(N)=O)NC(=O)[C@H](CC(C)C)NC(=O)[C@H](Cc5c[nH]cn5)NC(=O)[C@H](CC(C)C)NC3=O)C(=O)CCSC[C@H](NC(=O)[C@H](CCCCN)NC(=O)[C@H](CC(=O)O)NC(=O)[C@H](CO)NC(C)=O)C(=O)N[C@@H](CO)C(=O)N[C@@H](C)C(=O)NCC(=O)N[C@@H](Cc3c[nH]c5ccccc35)C(=O)N[C@@H](CC(C)C)C(=O)N[C@@H]([C@@H](C)O)C(=O)N[C@@H](CCSC)C(=O)N4)nn1)C(=O)N[C@H](C)C(=O)N1CCC[C@H]1C(=O)N[C@@H](Cc1ccc(O)cc1)C(=O)N2 [BCY11017] | – | 4 | –
CCCC[C@@H]1NC(=O)[C@H](Cc2ccc(O)cc2)NC(=O)[C@@H]2CCCN2C(=O)[C@H](CC(=O)O)NC(=O)[C@H](C)NC(=O)[C@H](Cc2ccccc2)NC(=O)[C@@H]2CSCCC(=O)N3CN(CN(C3)C(=O)CCSC[C@@H](C(=O)N[C@@H](C)C(N)=O)NC1=O)C(=O)CCSC[C@H](NC(C)=O)C(=O)N[C@@H](CC(C)(C)C)C(=O)N1CCC[C@H]1C(=O)N[C@@H](CCC(=O)O)C(=O)N[C@H](CCCCNC(=O)CCOCCOCCOCCOCCOCCOCCOCCOCCOCCOCCOCCOCCn1cc(CCC(=O)NCCCC[C@@H]3NC(=O)[C@H](CCC(N)=O)NC(=O)[C@@H]4CSCCC(=O)N5CN(CN(C5)C(=O)CCSC[C@@H](C(=O)N5CCC[C@H]5C(=O)N[C@@H](CO)C(=O)N[C@@H](Cc5c[nH]cn5)C(N)=O)NC(=O)[C@H](CC(C)C)NC(=O)[C@H](Cc5c[nH]cn5)NC(=O)[C@H](CC(C)C)NC3=O)C(=O)CCSC[C@H](NC(=O)[C@H](CCCCN)NC(=O)[C@H](CC(=O)O)NC(=O)[C@H](CO)NC(C)=O)C(=O)N[C@@H](CO)C(=O)N[C@@H](C)C(=O)NCC(=O)N[C@@H](Cc3c[nH]c5ccccc35)C(=O)N[C@@H](CC(C)C)C(=O)N[C@@H]([C@@H](C)O)C(=O)N[C@@H](CCSC)C(=O)N4)nn1)C(=O)N1CCC[C@H]1C(=O)N[C@@H](Cc1ccc(O)cc1)C(=O)N2 [BCY11018] | – | 7 | –
CCCC[C@@H]1NC(=O)[C@H](Cc2ccc(O)cc2)NC(=O)[C@@H]2CCCN2C(=O)[C@H](CC(=O)O)NC(=O)[C@H](C)NC(=O)[C@H](Cc2ccccc2)NC(=O)[C@@H]2CSCCC(=O)N3CN(CN(C3)C(=O)CCSC[C@@H](C(=O)N[C@@H](CNC(=O)CCOCCOCCOCCOCCOCCOCCOCCOCCOCCOCCOCCOCCn3cc(CCC(=O)NCCCC[C@@H]4NC(=O)[C@H](CCC(N)=O)NC(=O)[C@@H]5CSCCC(=O)N6CN(CN(C6)C(=O)CCSC[C@@H](C(=O)N6CCC[C@H]6C(=O)N[C@@H](CO)C(=O)N[C@@H](Cc6c[nH]cn6)C(N)=O)NC(=O)[C@H](CC(C)C)NC(=O)[C@H](Cc6c[nH]cn6)NC(=O)[C@H](CC(C)C)NC4=O)C(=O)CCSC[C@H](NC(=O)[C@H](CCCCN)NC(=O)[C@H](CC(=O)O)NC(=O)[C@H](CO)NC(C)=O)C(=O)N[C@@H](CO)C(=O)N[C@@H](C)C(=O)NCC(=O)N[C@@H](Cc4c[nH]c6ccccc46)C(=O)N[C@@H](CC(C)C)C(=O)N[C@@H]([C@@H](C)O)C(=O)N[C@@H](CCSC)C(=O)N5)nn3)C(N)=O)NC1=O)C(=O)CCSC[C@H](NC(C)=O)C(=O)N[C@@H](CC(C)(C)C)C(=O)N1CCC[C@H]1C(=O)N[C@@H](CCC(=O)O)C(=O)N[C@H](C)C(=O)N1CCC[C@H]1C(=O)N[C@@H](Cc1ccc(O)cc1)C(=O)N2 [BCY11019] | – | – | 6
